Measured values published in PubChem BioAssay (NCI).
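Five compound concentrations were applied to cells in 96-well plates for 48 hours; endpoints were derived by simple linear interpolation of the resulting dose-response curve. GI50 is the concentration that inhibits growth by half. TGI marks complete inhibition of growth.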

test system: A498 renal; experiment: inhibition of tumour cell growth, NCI panel, 48 h

Row | SMILES | TGI | GI50
1 | COCCCNc1nc(N)c(C#N)c(C#N)c1C#N | > 10 µM | –
2 | CC1CCCCNC1=S (configuration not stated) | > 10 µM | –
3 | CCOC(=O)c1ccc(N[C@@H]2c3cc4c(cc3C(c3cc(OC)c(O)c(OC)c3)[C@H]3C(=O)OCC32)OCO4)cc1O (some centres not stated) | 2.81 µM | –
4 | CC1CC2=C(S(=O)(=O)c3ccccc3)CC(S(=O)(=O)c3ccccc3)(S(=O)(=O)c3ccccc3)CC21 (configuration not stated) | > 100 µM | –
5 | CCC(C)NC1=NCC(C)S1 (configuration not stated) | > 100 µM | –
6 | Clc1ccc(C[P+](c2ccccc2)(c2ccccc2)c2ccccc2)c(Cl)c1 | 30.6 µM | –
7 | COc1ccccc1CNCCCN1C(=O)c2ccc3c4c(ccc(c24)C1=O)C(=O)N(CCCNCCNCCCN)C3=O | 20.1 µM | 5.01 µM
8 | NNC(=O)c1c(SCc2ccccc2)nc2c3ccccc3ccn12 | 46.6 µM | –
9 | COc1cc2oc(-c3ccc(O)cc3)c(OC)c(=O)c2c(O)c1OC | > 100 µM | 11 µM
10 | C[C@@H]1Nc2cc(NC(=O)OCCF)nc(N)c2N=C1c1ccccc1 | – | < 0.0001 µM

test system: DMS 114 small cell lung; experiment: inhibition of tumour cell growth, NCI panel, 48 h

Row | SMILES | TGI
11 | CCOC(=O)c1ccc(N[C@@H]2c3cc4c(cc3C(c3cc(OC)c(O)c(OC)c3)[C@H]3C(=O)OCC32)OCO4)cc1O (some centres not stated) | 2.03 µM
12 | CC1CC2=C(S(=O)(=O)c3ccccc3)CC(S(=O)(=O)c3ccccc3)(S(=O)(=O)c3ccccc3)CC21 (configuration not stated) | > 100 µM
13 | Clc1ccc(C[P+](c2ccccc2)(c2ccccc2)c2ccccc2)c(Cl)c1 | 6 µM

test system: DMS 273 small cell lung; experiment: inhibition of tumour cell growth, NCI panel, 48 h

Row | SMILES | TGI
14 | CCOC(=O)c1ccc(N[C@@H]2c3cc4c(cc3C(c3cc(OC)c(O)c(OC)c3)[C@H]3C(=O)OCC32)OCO4)cc1O (some centres not stated) | 1.77 µM
15 | CC1CC2=C(S(=O)(=O)c3ccccc3)CC(S(=O)(=O)c3ccccc3)(S(=O)(=O)c3ccccc3)CC21 (configuration not stated) | > 100 µM
16 | Clc1ccc(C[P+](c2ccccc2)(c2ccccc2)c2ccccc2)c(Cl)c1 | 10.1 µM

test system: HOP-18 NSCLC; experiment: inhibition of tumour cell growth, NCI panel, 48 h

Row | SMILES | TGI
17 | CCOC(=O)c1ccc(N[C@@H]2c3cc4c(cc3C(c3cc(OC)c(O)c(OC)c3)[C@H]3C(=O)OCC32)OCO4)cc1O (some centres not stated) | > 54.4 µM
18 | CC1CC2=C(S(=O)(=O)c3ccccc3)CC(S(=O)(=O)c3ccccc3)(S(=O)(=O)c3ccccc3)CC21 (configuration not stated) | > 100 µM

test system: HS 578T breast; experiment: inhibition of tumour cell growth, NCI panel, 48 h

Row | SMILES | TGI | GI50
19 | COCCCNc1nc(N)c(C#N)c(C#N)c1C#N | > 10 µM | –
20 | CC1CCCCNC1=S (configuration not stated) | > 10 µM | –
21 | CCC(C)NC1=NCC(C)S1 (configuration not stated) | > 100 µM | –
22 | COc1ccccc1CNCCCN1C(=O)c2ccc3c4c(ccc(c24)C1=O)C(=O)N(CCCNCCNCCCN)C3=O | 42.9 µM | 5.51 µM
23 | NNC(=O)c1c(SCc2ccccc2)nc2c3ccccc3ccn12 | > 100 µM | –

test system: KM20L2 colon; experiment: inhibition of tumour cell growth, NCI panel, 48 h

Row | SMILES | TGI
24 | CCOC(=O)c1ccc(N[C@@H]2c3cc4c(cc3C(c3cc(OC)c(O)c(OC)c3)[C@H]3C(=O)OCC32)OCO4)cc1O (some centres not stated) | > 22.3 µM
25 | CC1CC2=C(S(=O)(=O)c3ccccc3)CC(S(=O)(=O)c3ccccc3)(S(=O)(=O)c3ccccc3)CC21 (configuration not stated) | > 100 µM
26 | Clc1ccc(C[P+](c2ccccc2)(c2ccccc2)c2ccccc2)c(Cl)c1 | 18.9 µM

test system: MDA-MB-231 breast; experiment: inhibition of tumour cell growth, NCI panel, 48 h

Row | SMILES | TGI | GI50
27 | COCCCNc1nc(N)c(C#N)c(C#N)c1C#N | > 10 µM | –
28 | CC1CCCCNC1=S (configuration not stated) | > 10 µM | –
29 | CCC(C)NC1=NCC(C)S1 (configuration not stated) | > 100 µM | –
30 | COc1ccccc1CNCCCN1C(=O)c2ccc3c4c(ccc(c24)C1=O)C(=O)N(CCCNCCNCCCN)C3=O | > 100 µM | 2.09 µM
31 | NNC(=O)c1c(SCc2ccccc2)nc2c3ccccc3ccn12 | 87.9 µM | –

test system: MDA-N; experiment: inhibition of tumour cell growth, NCI panel, 48 h

Row | SMILES | TGI | GI50
32 | COCCCNc1nc(N)c(C#N)c(C#N)c1C#N | > 10 µM | –
33 | CC1CCCCNC1=S (configuration not stated) | > 10 µM | –
34 | CCC(C)NC1=NCC(C)S1 (configuration not stated) | > 100 µM | –
35 | COc1cc2oc(-c3ccc(O)cc3)c(OC)c(=O)c2c(O)c1OC | > 100 µM | 25.5 µM
36 | C[C@@H]1Nc2cc(NC(=O)OCCF)nc(N)c2N=C1c1ccccc1 | < 0.0001 µM | –

test system: SK-MEL-2 melanoma; experiment: inhibition of tumour cell growth, NCI panel, 48 h

Row | SMILES | TGI | GI50
37 | COCCCNc1nc(N)c(C#N)c(C#N)c1C#N | > 10 µM | –
38 | CC1CCCCNC1=S (configuration not stated) | > 10 µM | –
39 | CCOC(=O)c1ccc(N[C@@H]2c3cc4c(cc3C(c3cc(OC)c(O)c(OC)c3)[C@H]3C(=O)OCC32)OCO4)cc1O (some centres not stated) | 1.83 µM | –
40 | CC1CC2=C(S(=O)(=O)c3ccccc3)CC(S(=O)(=O)c3ccccc3)(S(=O)(=O)c3ccccc3)CC21 (configuration not stated) | > 100 µM | –
41 | CCC(C)NC1=NCC(C)S1 (configuration not stated) | > 100 µM | –
42 | Clc1ccc(C[P+](c2ccccc2)(c2ccccc2)c2ccccc2)c(Cl)c1 | 7.71 µM | –
43 | COc1ccccc1CNCCCN1C(=O)c2ccc3c4c(ccc(c24)C1=O)C(=O)N(CCCNCCNCCCN)C3=O | 6.49 µM | 2.67 µM
44 | NNC(=O)c1c(SCc2ccccc2)nc2c3ccccc3ccn12 | > 100 µM | –
45 | COc1cc2oc(-c3ccc(O)cc3)c(OC)c(=O)c2c(O)c1OC | > 100 µM | 39.2 µM

test system: SR leukemia; experiment: inhibition of tumour cell growth, NCI panel, 48 h

Row | SMILES | TGI
46 | COCCCNc1nc(N)c(C#N)c(C#N)c1C#N | > 10 µM
47 | CC1CCCCNC1=S (configuration not stated) | > 10 µM
48 | CC1CC2=C(S(=O)(=O)c3ccccc3)CC(S(=O)(=O)c3ccccc3)(S(=O)(=O)c3ccccc3)CC21 (configuration not stated) | > 100 µM
49 | CCC(C)NC1=NCC(C)S1 (configuration not stated) | > 100 µM
50 | Clc1ccc(C[P+](c2ccccc2)(c2ccccc2)c2ccccc2)c(Cl)c1 | 8.13 µM

test system: T-47D breast; experiment: inhibition of tumour cell growth, NCI panel, 48 h

Row | SMILES | TGI | GI50
51 | COCCCNc1nc(N)c(C#N)c(C#N)c1C#N | > 10 µM | –
52 | CC1CCCCNC1=S (configuration not stated) | > 10 µM | –
53 | CCC(C)NC1=NCC(C)S1 (configuration not stated) | > 100 µM | –
54 | COc1ccccc1CNCCCN1C(=O)c2ccc3c4c(ccc(c24)C1=O)C(=O)N(CCCNCCNCCCN)C3=O | 4.99 µM | 1.51 µM
55 | NNC(=O)c1c(SCc2ccccc2)nc2c3ccccc3ccn12 | 72.1 µM | –
56 | C[C@@H]1Nc2cc(NC(=O)OCCF)nc(N)c2N=C1c1ccccc1 | > 100 µM | –

test system: U251 CNS; experiment: inhibition of tumour cell growth, NCI panel, 48 h

Row | SMILES | TGI | GI50
57 | COCCCNc1nc(N)c(C#N)c(C#N)c1C#N | > 10 µM | –
58 | CC1CCCCNC1=S (configuration not stated) | > 10 µM | –
59 | CC1CC2=C(S(=O)(=O)c3ccccc3)CC(S(=O)(=O)c3ccccc3)(S(=O)(=O)c3ccccc3)CC21 (configuration not stated) | > 100 µM | –
60 | CCC(C)NC1=NCC(C)S1 (configuration not stated) | > 100 µM | –
61 | Clc1ccc(C[P+](c2ccccc2)(c2ccccc2)c2ccccc2)c(Cl)c1 | 18.8 µM | –
62 | COc1ccccc1CNCCCN1C(=O)c2ccc3c4c(ccc(c24)C1=O)C(=O)N(CCCNCCNCCCN)C3=O | 10.1 µM | 1.17 µM
63 | NNC(=O)c1c(SCc2ccccc2)nc2c3ccccc3ccn12 | > 100 µM | –
64 | COc1cc2oc(-c3ccc(O)cc3)c(OC)c(=O)c2c(O)c1OC | > 100 µM | –
65 | C[C@@H]1Nc2cc(NC(=O)OCCF)nc(N)c2N=C1c1ccccc1 | 12.2 µM | –

test system: XF 498 CNS; experiment: inhibition of tumour cell growth, NCI panel, 48 h

Row | SMILES | TGI
66 | CCOC(=O)c1ccc(N[C@@H]2c3cc4c(cc3C(c3cc(OC)c(O)c(OC)c3)[C@H]3C(=O)OCC32)OCO4)cc1O (some centres not stated) | 16.9 µM
67 | CC1CC2=C(S(=O)(=O)c3ccccc3)CC(S(=O)(=O)c3ccccc3)(S(=O)(=O)c3ccccc3)CC21 (configuration not stated) | > 100 µM
68 | Clc1ccc(C[P+](c2ccccc2)(c2ccccc2)c2ccccc2)c(Cl)c1 | 4.4 µM
